Experimental data reported in ChEMBL document CHEMBL3745649, “Structure-activity relationship study of anticancer thymidine-quinoxaline conjugates under the low radiance of long wavelength ultraviolet light for photodynamic therapy” (Eur J Med Chem, 2016).
Activity calls are given as the source filed them. The calls are words filed in the database; no cut-off is given here.

Legend:
[1] = Induction of apoptosis in human PANC1 cells assessed as viable cells at 2 uM after 24 hrs by Annexin V-FITC/propidium iodide staining-based flow cytometric analysis in absence of UVA-1 irradiation (reference value: 88.6%); format: cell-based, PANC-1; settings: read-out: Activity
[2] = Photocytotoxicity against human PANC1 cells assessed as cell viability preincubated for 5 hrs with cells followed by white light irradiation at 0.015 mW/cm'2 for 20 mins measured after 48 hrs by CCK8 assay; format: functional, cell-based; settings: PANC-1, light or radiation study
[3] = Photocytotoxicity against human PANC1 cells assessed as cell viability preincubated for 5 hrs with cells followed by UVA-1 irradiation at 3.0 mW/cm'2 for 20 mins measured after 48 hrs by CCK8 assay; format: functional, cell-based; settings: PANC-1, light or radiation study
[4] = Induction of apoptosis in human PANC1 cells assessed as early apoptotic cells at 2 uM after 24 hrs by Annexin V-FITC/propidium iodide staining-based flow cytometric analysis in absence of UVA-1 irradiation (reference value: 9.4%); format: cell-based; settings: panc-1, 24 h
[5] = Induction of apoptosis in human PANC1 cells assessed as late apoptotic cells at 2 uM after 24 hrs by Annexin V-FITC/propidium iodide staining-based flow cytometric analysis in absence of UVA-1 irradiation (reference value: 1.5%); format: cell-based; settings: panc-1, 24 h
[6] = Induction of apoptosis in human PANC1 cells assessed as necrotic cells at 2 uM after 24 hrs by Annexin V-FITC/propidium iodide staining-based flow cytometric analysis in absence of UVA-1 irradiation (reference value: 0.5%); format: cell-based; settings: panc-1, 24 h
[7] = tested on: PANC-1; test: Induction of apoptosis in human PANC1 cells assessed as viable cells at 2 uM preincubated for 5 hrs followed by UVA-1 irradiation at 3 mW/cm'2 for 20 mins measured after 24 hrs by Annexin V-FITC/propidium iodide staining-based flow cytometric analysis (reference value: 91%); format: functional; settings: PANC-1, light or radiation study, read-out: Activity
[8] = tested on: PANC-1; test: Induction of apoptosis in human PANC1 cells assessed as early apoptotic cells at 2 uM preincubated for 5 hrs followed by UVA-1 irradiation at 3 mW/cm'2 for 20 mins measured after 24 hrs by Annexin V-FITC/propidium iodide staining-based flow cytometric analysis (reference value: 7.4%); format: functional
[9] = tested on: PANC-1; test: Induction of apoptosis in human PANC1 cells assessed as late apoptotic cells at 2 uM preincubated for 5 hrs followed by UVA-1 irradiation at 3 mW/cm'2 for 20 mins measured after 24 hrs by Annexin V-FITC/propidium iodide staining-based flow cytometric analysis (reference value: 1.3%); format: functional
[10] = tested on: PANC-1; test: Induction of apoptosis in human PANC1 cells assessed as necrotic cells at 2 uM preincubated for 5 hrs followed by UVA-1 irradiation at 3 mW/cm'2 for 20 mins measured after 24 hrs by Annexin V-FITC/propidium iodide staining-based flow cytometric analysis (reference value: 0.3%); format: functional
[11] = Dark cytotoxicity against human PANC1 cells assessed as production of reactive oxygen stress at 5 uM after 5 hrs by DCFH-DA based fluorescence microscopic analysis in absence of UVA-1 irradiation; format: cell-based; settings: panc-1, 5 h
[12] = tested on: PANC-1; test: Photocytotoxicity against human PANC1 cells assessed as production of reactive oxygen stress at 5 uM preincubated for 5 hrs followed by UVA-1 irradiation at 3 mW/cm'2 for 20 mins by DCFH-DA based fluorescence microscopic analysis; format: functional, cell-based
[13] = Retention time of the compound at 5 uM by HPLC analysis; format: physicochemical
[14] = tested on: PANC-1; test: Photocytotoxicity against human PANC1 cells assessed as production of reactive oxygen stress at 5 uM preincubated for 5 hrs followed by UVA-1 irradiation at 3 mW/cm'2 for 20 mins measured after 5 hrs by HPLC analysis; format: functional, cell-based
[15] = Retention time of the compound in human PANC1 cells at 5 uM after 5 hrs by HPLC analysis in absence of UVA-1 irradiation; format: ADME, cell-based; settings: panc-1, 5 h
[16] = Retention time of the compound in human PANC1 cells at 5 uM preincubated for 5 hrs followed by UVA-1 irradiation at 3 mW/cm'2 for 20 mins measured after 5 hrs by HPLC analysis; format: ADME, cell-based; settings: panc-1, 5 µM
[17] = tested on: Bel-7402; test: Photocytotoxicity against human Bel7402 cells assessed as production of reactive oxygen stress at 5 uM preincubated for 5 hrs followed by UVA-1 irradiation at 0.85 mW/cm'2 for 20 mins measured for 4 to 10 mins by DCFH-DA based fluorescence microscopic analysis; format: functional, cell-based
[18] = tested on: PANC-1; test: Photocytotoxicity against human PANC1 cells assessed as production of reactive oxygen stress at 5 uM preincubated for 5 hrs followed by UVA-1 irradiation at 0.85 mW/cm'2 for 20 mins measured for 4 to 10 mins by DCFH-DA based fluorescence microscopic analysis; format: functional, cell-based
[19] = tested on: PANC-1; test: Potency index, ratio of sunitinib EC50 to compound EC50 for human PANC1 cells in presence of UVA-1 irradiation at 3 mW/cm'2; format: functional
[20] = tested on: Bel-7402; test: Potency index, ratio of sunitinib EC50 to compound EC50 for human Bel7402 cells in presence of UVA-1 irradiation at 3 mW/cm'2; format: functional
[21] = tested on: PANC-1; test: Ratio of EC50 for human PANC1 cells in presence of UVA-1 irradiation at 0.85 mW/cm'2 to EC50 for human PANC1 cells in presence of UVA-1 irradiation at 3 mW/cm'2; format: functional
[22] = tested on: Bel-7402; test: Ratio of EC50 for human Bel7402 cells in presence of UVA-1 irradiation at 0.85 mW/cm'2 to EC50 for human Bel7402 cells in presence of UVA-1 irradiation at 3 mW/cm'2; format: functional
[23] = Photocytotoxicity against human PANC1 cells assessed as cell viability at 10 uM preincubated for 5 hrs with cells followed by white light irradiation at 0.015 mW/cm'2 for 20 mins measured after 48 hrs by CCK8 assay relative to control; format: functional; settings: PANC-1, light or radiation study, read-out: Activity
[24] = Dark toxicity against human Bel7402 cells assessed as cell viability after 53 hrs by CCK8 assay in absence of UVA-1 irradiation; format: cell-based, Bel-7402
[25] = Dark toxicity against human PANC1 cells assessed as cell viability after 53 hrs by CCK8 assay in absence of UVA-1 irradiation; format: cell-based, PANC-1
[26] = Photocytotoxicity against human Bel7402 cells assessed as cell viability preincubated for 5 hrs followed by UVA-1 irradiation at 0.85 mW/cm'2 for 20 mins measured after 48 hrs by CCK8 assay; format: functional, cell-based; settings: Bel-7402, light or radiation study
[27] = Photocytotoxicity against human PANC1 cells assessed as cell viability preincubated for 5 hrs followed by UVA-1 irradiation at 0.85 mW/cm'2 for 20 mins measured after 48 hrs by CCK8 assay; format: functional, cell-based; settings: PANC-1, light or radiation study
[28] = tested on: Bel-7402; test: Photocytotoxicity against human Bel7402 cells assessed as cell viability pretreated with UVA-1 irradiation at 3.0 mW/cm'2 for 20 mins followed by cell addition measured after 48 hrs by CCK8 assay; format: functional, cell-based
[29] = tested on: PANC-1; test: Photocytotoxicity against human PANC1 cells assessed as cell viability preincubated for 24 hrs with cells followed by UVA-1 irradiation for 20 mins at 3.0 mW/cm'2 measured after 48 hrs by CCK8 assay; format: functional, cell-based
[30] = tested on: PANC-1; test: Photocytotoxicity against human PANC1 cells assessed as cell viability pretreated with UVA-1 irradiation at 3.0 mW/cm'2 for 20 mins followed by cell addition measured after 48 hrs by CCK8 assay; format: functional, cell-based
[31] = Photocytotoxicity against human Bel7402 cells assessed as cell viability preincubated for 5 hrs with cells followed by UVA-1 irradiation at 3.0 mW/cm'2 for 20 mins measured after 48 hrs by CCK8 assay; format: functional, cell-based; settings: Bel-7402, light or radiation study
[32] = tested on: Bel-7402; test: Photocytotoxicity against human Bel7402 cells assessed as cell viability preincubated for 24 hrs with cells followed by UVA-1 irradiation for 20 mins at 3.0 mW/cm'2 measured after 48 hrs by CCK8 assay; format: functional, cell-based
[33] = Photocytotoxicity against human Bel7402 cells assessed as cell viability at 10 uM preincubated for 5 hrs with cells followed by white light irradiation at 0.015 mW/cm'2 for 20 mins measured after 48 hrs by CCK8 assay relative to control; format: functional; settings: Bel-7402, light or radiation study, read-out: Activity
[34] = Photocytotoxicity against human Bel7402 cells assessed as cell viability preincubated for 5 hrs with cells followed by white light irradiation at 0.015 mW/cm'2 for 20 mins measured after 48 hrs by CCK8 assay; format: functional, cell-based; settings: Bel-7402, light or radiation study
[35] = Photocytotoxicity against human Bel7402 cells assessed as cell viability preincubated for 5 hrs followed by UVA-1 irradiation at 5.4 mW/cm'2 for 20 mins measured after 48 hrs by CCK8 assay; format: functional, cell-based; settings: Bel-7402, light or radiation study
[36] = Photocytotoxicity against human PANC1 cells assessed as cell viability preincubated for 5 hrs followed by UVA-1 irradiation at 5.4 mW/cm'2 for 20 mins measured after 48 hrs by CCK8 assay; format: functional, cell-based; settings: PANC-1, light or radiation study

Cc1cn([C@H]2C[C@H](n3cc(CNC(=O)CCCCCOc4ccc5c(c4)-c4nc6cc(Cl)c(Cl)cc6nc4[C@@H]4C(C)(C)CCC[C@]54C)nn3)[C@@H](CO)O2)c(=O)[nH]c1=O
viability at 24 h, 2 µM [1]: 89.4% | EC50 [2]: > 10 µM | EC50 [3]: 1.3 µM | Activity [4]: 8.8% | Activity [5]: 1.4% | Activity [6]: 0.4% | viability at 2 µM [7]: 40.5% | Activity [8]: 11.9% | Activity [9]: 44.1% | Activity [10]: 3.5% | Activity [11]: Non-toxic | Activity [12]: Active | Retention_time [13]: 68 min | Activity [14]: Active | Retention_time [15]: 68 min | Retention_time [16]: 68 min | Activity [17]: Active | Activity [18]: Active | Ratio EC50 [19]: 20 | Ratio EC50 [20]: 10 | Ratio EC50 [21]: 4 | Ratio EC50 [22]: 3 | viability at 10 µM [23]: < 40% | EC50 at 53 h [24]: > 20 µM | EC50 at 53 h [25]: ≥ 50 µM | EC50 [26]: 2 µM | EC50 [27]: 5.7 µM | Activity [28]: inactive | Activity [29]: Active | Activity [30]: inactive | EC50 [31]: 0.67 µM | Activity [32]: Active | viability at 10 µM [33]: < 40% | EC50 [34]: > 10 µM | EC50 [35]: 0.61 µM | EC50 [36]: 1.2 µM
